Laboratory results reported in patent US20180002692A1, “Sequence Specific and Organism Specific Antimicrobials and Related Materials and Methods” (priority 2015, published 2018).
Entries after “also recorded” stand apart in the source; their conditions may differ. Read-outs that look alike come from different tables or passages of the source.

How the values were obtained:
MG1655 E. coli [1] = test: Growth (optical density, lag time) of MG1655; format: cell-based; conditions: 10 μM antisense inhibitor
Protocol: MG1655 E. coli cultures were started from individual colonies from 2% LB and 1.5% agar into M9 media. They were diluted 1:10,000 from overnight culture into fresh M9 with respective treatment and grown at 37° C. with 225 rpm shaking. Clinical strains were started from individual colonies grown on cation adjusted Mueller Hinton Broth with 1.5% agar into liquid CAMHB. These were diluted 1:10,000 into CAMHB medium with respective treatment and grown at 37° C. with 225 rpm shaking. Optical density measurements were taking using a Tecan GENios at 562 nm with a bandwidth of 35 nm. Lag time was calculated using Growth Rates Made Easy (Hall et al. Mol. Biol. Evol. 31(1):232-238). […]

MG1655 E. coli [2] = test: Colony forming unit analysis of MG1655; format: cell-based; conditions: 10 μM, 2 hours; listed as A-rpsD
Source text: The effect of α-lexA, α-fnrS, and α-rpsD on cell viability using a colony forming unit analysis was then determine.

[3] = tested on: MDR Salmonella typhimurium; test: Growth of clinical strain MDR S. typhimurium; format: cell-based; conditions: 10 μM
Protocol: (§1) MG1655 E. coli cultures were started from individual colonies from 2% LB and 1.5% agar into M9 media. They were diluted 1:10,000 from overnight culture into fresh M9 with respective treatment and grown at 37° C. with 225 rpm shaking. Clinical strains were started from individual colonies grown on cation adjusted Mueller Hinton Broth with 1.5% agar into liquid CAMHB. These were diluted 1:10,000 into CAMHB medium with respective treatment and grown at 37° C. with 225 rpm shaking. Optical density measurements were taking using a Tecan GENios at 562 nm with a bandwidth of 35 nm. Lag time was calculated using Growth Rates Made Easy (Hall et al. Mol. Biol. Evol. 31(1):232-238).
(§2) MDR E. coli was inhibited by four of the six oligomers tested (α-folC, α-ffh, α-lexA, and α-rpsD), extended-spectrum beta-lactamase (ESBL) K. pneumoniae was inhibited by two of the antisense oligomers (α-fnrS and α-rpsD), and New Delhi metallo-β-lactamase (NDM-1) K. pneumoniae was inhibited by one of the oligomers tested (α-rpsD) (FIGS. 15-16).

CRE E. coli = test: Growth of clinical strain CRE E. coli; format: cell-based, Escherichia coli; conditions: 10 μM
Protocol: as §1, §2

MDR E. coli = test: Growth of clinical strain MDR E. coli; format: cell-based; conditions: 10 μM
Protocol: as §1, §2

ESBL K. pneumoniae = test: Growth of clinical strain ESBL K. pneumoniae; format: cell-based, Klebsiella pneumoniae; conditions: 10 μM
Protocol: as §1, §2

NDM-1 K. pneumoniae = test: Growth of clinical strain NDM-1 K. pneumoniae; format: cell-based, Klebsiella pneumoniae; conditions: 10 μM
Protocol: as §1, §2

[4] = tested on: ampicillin-resistant E. coli; format: cell-based
Protocol: pAKgfp1 plasmid was obtained from Addgene for TEM-1 β-lactamase resistance gene, bla (43). The plasmid was cloned into chemically competent Zymo DH5a E. coli (Expressys). Untransformed Zymo DH5a was used as a control strain for β-lactamase activity assays. Liquid cultures were grown in 2% LB, incubated at 37° C. and shaken at 225 rpm. Solid cultures were grown on 2% LB broth, 1.5% agar at 37° C. Ampicillin sodium salt (Sigma Aldrich) was used for selection at a concentration of 300 μg/mL for MIC and CFU analysis. Optical density measurements were taken using a Tecan GENios at 562 nm with a bandwidth of 35 nm. All bacterial freezer stocks were stored in 40% glycerol at −80° C.

bla mRNA = bla mRNA expression by qPCR; format: cell-based, E. coli; conditions: 5 μM α-TSS, 25 μM α-RBS, 25 μM α-YUNR; absence of ampicillin
Protocol: Three biological replicates were used for bla expression analysis. Cultures were pretreated overnight in respective PNA and liquid media in the absence of ampicillin and collected for RNA at 16 hr.
50 μL of the respective culture was added to 100 μL of Bacteria RNAprotect (Qiagen) and incubated at room temperature for 5 min. The cells were then pelleted via centrifugation for 3 min at 10,000 rpm, the supernatant removed, and samples were flash frozen in an ethanol dry ice bath and stored at −80° C. Precautions were taken to protect RNA from RNases using RNaseZap (Life Technologies). RNA was extracted from frozen cell pellets using GeneJET RNA purification kit (Thermo Scientific) and 350-600 ng was treated with Turbo DNA-free (Ambion). 50 ng cDNA was synthesized using Maxima Universal First Stand cDNA synthesis kit (Thermo Scientific). 1.5 ng of cDNA was used for qPCR with Maxima SYBR Green qPCR master mix with ROX normalization (Thermo Scientific) using Illumina Eco qPCR system. Transcript levels were analyzed using the ΔCq method with respect to moderately expressed housekeeping gene cysG (43). Transcript levels were further analyzed for the mutant populations using the ΔΔCq method with respect to the no treatment populations.

[5] = tested on: ampicillin-resistant E. coli; format: cell-based; remark: listed apart in the source
Protocol: Three biological replicates were selected from colonies and pretreated for 16 hr with respective α-TSS concentration in liquid media. After pretreatment, the cultures were diluted 1:100,000 into liquid media with respective concentration of ampicillin and α-TSS and allowed to grow with shaking at 37° C. for 24 hr. The final OD at 562 nm at 24 hr was used for data analysis.
Data fitting analysis was performed in Origin Pro 6.1. Data was fit to a sigmoidal/decay Boltzman function.
The degree of re-sensitization exerted by α-TSS in presence of varying concentrations of ampicillin above and below the MIC determined for α-TSS was then evaluated.

[6] = tested on: ampicillin-resistant E. coli; test: Emergence of tolerance to α-TSS/ampicillin combination; format: cell-based; conditions: 35 cultures
Protocol: Ampicillin-resistant cultures were pretreated overnight with 2.5 μM α-TSS and then subjected to selection pressure of 2.5 μM α-TSS and 300 μg/mL of ampicillin for 24 hours. […] Mutant populations 1 and 2 were diluted and re-grown under selection pressure for another 24 hours.
Changes in expression of a set of key stress response genes was examined to identify the resistance mechanism involved in obtaining resistance to α-TSS. Thirteen representative stress response genes were measured by qPCR (FIG. 5B).

[7] = tested on: ampicillin-resistant E. coli; test: Colony forming unit analysis with α-TSS and ampicillin; conditions: 1 μM α-TSS (below MIC), 300 μg/mL ampicillin
Protocol: Cultures were sampled at respective time points and serial dilutions were performed ranging from 10^2-10^10. For ampicillin sensitivity experiment, dilutions were plated on solid media and 300 μg/mL ampicillin sodium salt and grown at 37° C. for 24 hr followed by cell counting. For the other experiments, cultures were serially diluted into PBS and plated onto 2% agar and 1.5% agar. Plates were incubated for 16-24 h at 37° C. and counted for visible colonies.
Overnight cultures of ampicillin-resistant E. coli were pre-treated with different concentrations of α-TSS, followed by treatment with ampicillin.

[8] = 0.5 μM α-TSS (below MIC), 24 hr

KFFKFFKFFK-O-ttgccattttct (antisense TTGCCATTTTCT; all peptide nucleic acid (PNA); (KFF)3K cell-penetrating peptide joined to the N-terminus through an O-linker) [α-rpsD, 12-mer antisense PNA centered on start codon of rpsD, O-linker to (KFF)3K]
lag time (MG1655 E. coli [1]): significantly increased lag time | growth of MG1655 E. coli cultures (MG1655 E. coli [1]; 24 h): completely inhibited; also recorded: completely prevented cell growth; also recorded: Complete inhibition | colony forming units per milliliter after two hours of treatment (MG1655 E. coli [2]): zero | growth inhibition of MDR S. typhimurium [3]: inhibited | growth inhibition of CRE E. coli (CRE E. coli): completely prevented growth; also recorded: inhibited | growth inhibition of MDR E. coli (MDR E. coli): inhibited | growth inhibition of ESBL K. pneumoniae (ESBL K. pneumoniae): inhibited | growth inhibition of NDM-1 K. pneumoniae (NDM-1 K. pneumoniae): inhibited

KFFKFFKFFK-O-tactcatactct (antisense TACTCATACTCT; PNA, O-linker to (KFF)3K peptide, chemistry not fully specified) [α-TSS]
re-sensitization of drug resistant E. coli to ampicillin [4]: re-sensitized drug resistant E. coli to ampicillin; also recorded: re-sensitization of drug resistant E. coli to ampicillin; also recorded: re-sensitize | growth in absence of ampicillin (toxicity of antisense agent) ([4]; absence of ampicillin): non-toxic effect; also recorded: No inhibition | growth of drug-resistant E. coli in presence of ampicillin ([4]; antisense oligomer plus 300 μg/mL ampicillin): hindered cell growth; also recorded: impact growth; also recorded: significant antibiotic effect | minimum inhibitory concentration (MIC) ([4]; in presence of 300 μg/mL ampicillin, after overnight pretreatment with antisense agent): 2.5 µM | bla mRNA expression (bla mRNA): did not affect bla transcript levels; also recorded: did not significantly reduce bla expression | slope of the transition from resistant to sensitive (Boltzman fit) ([5]; 0.5 μM α-TSS (below MIC)): −0.0038 ODmLμg^−1 | ampicillin concentration up to which growth is unhindered [5, 8]: 250 µg/mL | ampicillin concentration with no growth [5, 8]: 550 µg/mL | decrease in ampicillin MIC compared to the no treatment cultures ([5]; 5 μM α-TSS (above MIC)): greater than 20 fold | increase in negative slope compared to below MIC and no treatment ([5]; 5 μM α-TSS (above MIC)): Greater than two fold | slope of the transition from resistant to sensitive (Boltzman fit) ([5]; 5 μM α-TSS (above MIC)): −0.010 OD/μg/mL | lowest ampicillin concentration showing a decrease in growth ([5]; 5 μM α-TSS (above MIC), 24 hr): 25 µg/mL | shift in ampicillin sensitivity ([5]; α-TSS at 0.5 μM (below MIC) and 5 μM (above MIC)): leftward shift in ampicillin sensitivity | share of independent cultures showing emergence of tolerance ([6]; 2.5 μM α-TSS (MIC)/β-lactam): less than 5% | independent cultures showing emergence of tolerance ([6]; 5 μM α-TSS/ampicillin): None | colony forming units over time [7]: increased with time
